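The compound was tested at five concentrations on cells cultured in 96-well plates, with a 48-hour exposure period. At the TGI there is no net growth.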

Test systems include DMS 114 small cell lung; DMS 273 small cell lung; LXFL 529 NSCLC; M19-MEL melanoma; RXF-631 renal.
Holding throughout (experiment): NCI-60 cell line screen, 48 h

With `O=c1cc(-c2ccccc2)[nH]c2cc(O)ccc12`, the TGI is 34 µM with DMS 114 small cell lung; 87.8 µM in the experiment on DMS 273 small cell lung; more than 100 µM with LXFL 529 NSCLC; 35.3 µM in the experiment on M19-MEL melanoma; more than 100 µM in the experiment with RXF-631 renal.
Turning to `CN(CCO)c1nc2c(c(=O)[nH]1)CCC2`, the TGI with DMS 114 small cell lung, in the experiment with DMS 273 small cell lung, in the experiment on LXFL 529 NSCLC and in the experiment with M19-MEL melanoma was more than 100 µM throughout.
On to `CCOC1(COP(=O)(OCc2ccccc2)OCc2ccccc2)COC(COP(=O)(OCc2ccccc2)OCc2ccccc2)(OCC)CO1` (stereo not given), for which the TGI with DMS 273 small cell lung, in the experiment with LXFL 529 NSCLC, in the experiment on M19-MEL melanoma and in the experiment on RXF-631 renal was more than 100 µM in each case.
Regarding `CC(=O)C1=CSC2[C@H](NC(=O)Cc3ccccc3)C(=O)N2C1C(=O)OC(c1ccccc1)c1ccccc1` (stereo not given in full), the TGI in the experiment on DMS 114 small cell lung, with DMS 273 small cell lung, with LXFL 529 NSCLC, with M19-MEL melanoma and with RXF-631 renal was more than 100 µM in each case.
`CCO[C@]12C[C@H](OC)[C@@]3(O)CC(C1[C@H]3OCc1ccccc1)C13C4C2[C@H](OC)C1[C@](COC)(CN4CC)[C@H](O)C[C@@H]3OC` (stereo not given in full): the TGI in the experiment with DMS 114 small cell lung, with DMS 273 small cell lung, in the experiment on LXFL 529 NSCLC and in the experiment on M19-MEL melanoma was more than 100 µM in each case.
As for `CN(C)c1ccc(C=C2C(=O)OC(C)(C)OC2=O)cc1Br`, the TGI with DMS 114 small cell lung, with DMS 273 small cell lung, with LXFL 529 NSCLC, in the experiment on M19-MEL melanoma and in the experiment on RXF-631 renal was more than 100 µM each time.
As to `Cc1cc(=O)[nH]c(NN2C(Cl)C(=O)C2c2ccc(Cl)cc2)n1` (stereo not given), the TGI with DMS 114 small cell lung came out at 30 µM; with DMS 273 small cell lung it was 25.9 µM; in the experiment with LXFL 529 NSCLC, 19.2 µM; with M19-MEL melanoma, 35.7 µM.
For `CC12NN=NC1C(=O)NC2=O` (stereo not given), in that order: more than 100 µM, more than 100 µM, more than 100 µM and more than 100 µM.
As for `CN(C)CCCNC(=O)N/N=C/c1cccc([N+](=O)[O-])c1`, the TGI in the experiment on DMS 114 small cell lung, in the experiment with DMS 273 small cell lung and in the experiment on LXFL 529 NSCLC was more than 100 µM in each case.
For the molecule `Cn1c(/C=C(\O)c2ccc(Cl)cc2)nc2ccccc21`, the TGI in the experiment on LXFL 529 NSCLC, in the experiment with M19-MEL melanoma and in the experiment with RXF-631 renal was more than 100 µM throughout.
In the case of `COc1cc(OC)c(/C=C2\N=C(C)N(Nc3nnc(NN4C(=O)/C(=C/c5c(OC)cc(OC)cc5OC)N=C4C)c4ccccc34)C2=O)c(OC)c1`, the TGI with DMS 114 small cell lung, in the experiment on DMS 273 small cell lung, in the experiment on LXFL 529 NSCLC and in the experiment on M19-MEL melanoma was more than 100 µM in each case.

(Values after PubChem BioAssay (NCI).)
